Laboratory results as given in US20090176776A1, “SMALL MOLECULE INHIBITORS OF HIV-1 CAPSID ASSEMBLY” (UNIVERSITY OF ALABAMA AT BIRMINGHAM, priority 2005, published 2009).

Tests used:
[1] = biological target: T1, recombinant HIV-1 capsid protein (CA) (Human immunodeficiency virus type 1 group M subtype B, UniProt P12493); experiment: Turbidity based HIV-1 capsid assembly assay; format: biochemical; settings: initial assembly rate by turbidity; twofold dilutions over a 128 fold range; 30 μM CA, 2.25 M NaCl
T1 construct: recombinant HIV-1 capsid protein (CA); made in house
Method: The kinetics can be followed by monitoring the increase of turbidity using a spectrophotometer. The IC50 of the chemical compound tested is determined by titration. As the C-domain inhibits capsid assembly by forming CA-C-domain heterodimers, the effect of added C-terminal domain on the rate of assembly was evaluated by plotting the rate of assembly versus C-terminal domain concentration.
Soluble HIV-1 capsid protein can be triggered to assemble into tubes similar in diameter and morphology to intact cores by dilution into high iconic strength buffer. The kinetics of assembly can be followed by monitoring the increase in turbidity using a spectrophotometer (Lanham et al., J. Virol., 76:6900, 2002). This assembly assay was adapted to a 96-well, microplate format to allow for medium-throughput screening of compounds by measuring turbidity in a Nepeloskan Ascent plate reader (Thermo Electron Corp., UK). A DIVERSet™ library of 10,000 low molecular weight, “drug-like” compounds was purchased from ChemBridge Corp. (San Diego, Calif.). This library was selected for its potential bioavailability and application based on a pharmacophore diversity analysis. The average molecular weight of the compounds is 347 g/mol, the range being 200-596 g/mol. The compounds came plated in 96-well plates and solubilized in DMSO at 5 mgs/mL.
Turbidity based assay. A 1.5 μL aliquot of compound was diluted 90-fold into 50 mM Na2HPO4, […] buffer, pH 8 in an optically clear 96-well plate. The plate containing compounds and salt was read to check for compound solubility and to serve as a background reading for the assay. To initiate the assembly reaction, 15 μL of […] stock (in 50 mM Na2HPO4 pH 8) of recombinant HIV-1 capsid protein (CA), purified as described (Lanman et al., J. Virol., 76:6900, 2002), was added to each well of the 96-well plate using a multi-channel pipettor. […] Furthermore, the halftime of the assembly reaction is ˜5 minutes so reading the plate in thirds prevented loss of initial rate data. Therefore, CA was added to the first 4 lanes, the reactions followed for ten minutes, reading was paused, CA was then added to the next four lanes and the process repeated. Instrument settings are as follows: PMT gain of 500 V, lamp at 10V, and integration time of 60 ms. The data were exported to a custom designed Excel spreadsheet that allowed simultaneous plotting of kinetic curves.
Recombinant CA protein was purified as previously described and stored at 300 μM at −80° C. A turbidity based assembly assay, described above, was adapted to a 96-well, microplate format to allow for medium-throughput screening of compounds in a Nepheloskan Ascent plate reader (Thermo Electron Corp., UK). A 1.5 μL aliquot of compound or DMSO was diluted 90-fold into 50 mM Na2HPO4, 2.25 M NaCl buffer, pH 8 in an optically clear 96-well plate. To initiate the assembly reaction, 15 μL of the 300 μM stock (in 50 mM Na2HPO4 pH 8) of recombinant HIV-1 capsid protein (CA), was added to each well of the 96-well plate using a multi-channel pipettor.

[2] = MTS score (Table 1; method not described); format: cell-based; settings: for MTS AVG 4 (No Effect): average of the MTS scores at 10, 30 and 100 μM; for MTS 30 μM: score at nominal 30 μM; for MTS 30 μM / MTS 100 μM / MTS 10 μM: 4 = No Effect; for MTS 100 μM: score at nominal 100 μM; for MTS 10 μM: score at nominal 10 μM
HIV-1YU2 = experiment: Anti-HIV assay (multiple round), luciferase expression in Luc-M7 cells; format: cell-based; settings: Luc-M7 cells infected with HIV-1YU2, 6 days, Bright-Glo
Method: (§1) Anti-HIV Assays (Multiple Round). The inhibitory effects of the tested compounds on HIV-1YU2 replication were determined by the level of luciferase expression after 6 days of infection using Bright-Glo assay (Promega). An amount of 1.5×10^4 Luc-M7 (a gift from Ned Landau) cells per ml were infected with HIV-1YU2 at a multiplicity of infection (MOI) of 3. The HIV-1 infected ([…] compound) or mock-infected (0-300 μM compound) Luc-M7 cells were placed in 96-well culture plates (100 μl/well) with 100 μl of various concentrations of the compounds with 20 μg/ml DEAE Dextran in triplicate and incubated at 37° C. under 5% CO2 at 100% humidity. After 6 days, cell viability was quantified by Cell-Titer Glo assay (Promega). […] On day 5 cell viability was determined in the mock-infected cells. FIGS. 12-18 show the anti-HIV assays for the examples of chemical compounds used according to the invention. After in-vitro assay, the chemical compounds in FIGS. 12-18 were selected for screening for cell viability and toxicity. Jurkat cells assay was used as screening assay. […] After five days, GFP expression was read. Cell viability was monitored with Alamar Blue assay. Luc M7 assay was designed to measure inhibitory activity of the chemical compounds to viral replication. After infection of cells with YU2 virus, plate cells in 96-well plate in the presence of six concentration of compounds in DMSO. At day 6, the number of cells in wells were read with Cell Titer Glo kit or by counting the number of cells infected with Bright Glo kit. 293T cells assay was designed to determine the toxicity. 293T cells were transfected with NL43. After four hours, transfected cells were plated in 96-well plate in DMSO and 2 μM Indinavir. 72 hours later, viral supernatant was collected and plated on J[…].

Luc-M7 cells = experiment: Cell viability of Luc-M7 cells (Cell-Titer Glo); format: cell-based; parameters: unit: μM; settings: mock-infected Luc-M7 cells, 6 days
Method: as §1

HIV-1NL43 [3] = experiment: Anti-HIV assay (single round), infectivity of virus produced, titered on TZM-b1 cells; format: cell-based; settings: virus from NL43-transfected 293T cells, 72 hours; luciferase after two days; read-out: Infectivity 50%
Method: (§2) Anti-HIV Assays (Single Round). The inhibitory effect of the compounds on virus production and infectivity were determined by measuring the level of p24 produced in the presence of various concentrations of compounds from HEK-293 cells transiently transfected with pNL43 and by titering the virus on TZM-b1 cells. Briefly, 2.5×10^5 HEK-293 cells/ml were transfected with pNL43 using FuGene 6. Four hours post transfection the cells were plated in 96-well plates containing 100 μl of various concentrations of compounds (0-75 μM or 0-300 μM for mock transfected cells) in triplicate. At 72-hours post transfection virus supernatant was collected and stored at −80° C. until analysis. The level of p24 produced at each compound concentration was determined relative to the level produced in the presence of the DMSO only controls using HIV-1 p24 enzyme-linked immunosorbent assay (ELISA) (Beckman-Coulter). To determine the infectivity of the virus produced TZM-b1 cells were plated at 1×10^5 cells/ml in 100 μL in 96-well plates overnight. The next day, the media was replaced with 75 μL DMEM supplemented with 1% FBS, 1× PSG and 40 μg/ml DEAE Dextran and 25 μL of viral supernatant from the HEK-293 cells was added to each well. Three hours later 100 μL of DMEM with 7% FBS was added to each well. Two days after infection the cells were lysed and the level of luciferase expression was determined using the Bright-Glo assay.
(§3) FIGS. 12-18 show the anti-HIV assays for the examples of chemical compounds used according to the invention. After in-vitro assay, the chemical compounds in FIGS. 12-18 were selected for screening for cell viability and toxicity. Jurkat cells assay was used as screening assay. In Jurkat cells assay, JLTRG-R5 cells were used as Indicator cells and MOLT4 cells as Producer cells of NL43 and BAL virus. 96 chemical compounds were plated at seven different concentration from 75 μM to 0 μM at three-fold serial dilutions in 384 well plate. After five days, GFP expression was read. Cell viability was monitored with Alamar Blue assay. Luc M7 assay was designed to measure inhibitory activity of the chemical compounds to viral replication. After infection of cells with YU2 virus, plate cells in 96-well plate in the presence of six concentration of compounds in DMSO. At day 6, the number of cells in wells were read with Cell Titer Glo kit or by counting the number of cells infected with Bright Glo kit. 293T cells assay was designed to determine the toxicity. 293T cells were transfected with NL43. After four hours, transfected cells were plated in 96-well plate in DMSO and 2 μM Indinavir. 72 hours later, viral supernatant was collected and plated on JC53BL. Luciferase expression was measure after two days and p24 analysis was conducted with 1:1000 and 1:2000 dilutions.

HIV-1NL43 [4] = experiment: Anti-HIV assay (single round), p24 production by pNL43-transfected cells (ELISA); format: cell-based; settings: p24 in supernatant of NL43-transfected 293T cells, 72 hours; read-out: p24 50%
Method: as §2, §3

293T cells = experiment: Toxicity in 293T cells; format: cell-based, human; parameters: unit not given beside the values
Method: as §2, §3

Compound | IC50 [1] [µM] | MTS AVG 4 (No Effect) [2] | MTS 30 μM [2] | MTS 100 μM [2] | IC50 (HIV-1YU2) [µM] | TC50 (Luc-M7 cells) | IC50 (HIV-1NL43 [3]) [µM] | IC50 (HIV-1NL43 [4]) [µM] | TC50% (293T cells) | MTS 10 μM [2]
CCN(CC)c1ccc(C=Nc2ccc(Sc3ccc([N+](=O)[O-])cc3)cc2)cc1 [Compound 70] | 33 | 3.000 | 4 | 2 | 1.47 | 92.5 | 32.9 | 67.5 | 135 | –
O=[N+]([O-])c1c(Cl)cc(O)c2c1C1C=CCC1C(c1ccc(Br)cc1)N2 (centres unmarked) [Compound 25] | 10 | 1.000 | 1 | 1 | – | – | 17.7 | 10.4 | 174 | 1
Cc1ccc(S(=O)(=O)NN=Cc2cc(Br)cc(Br)c2O)cc1 [Compound 73] | 15 | 3.000 | 3 | 2 | – | – | 32 | 70 | 178 | 4
COc1ccc(NS(=O)(=O)c2ccc(Br)cc2)cc1OC [Compound 14] | 10 | 1.667 | 1 | 2 | – | – | > 75 | 62.8 | 102 | 2
CCc1ccc(OCCCCCn2ccnc2)cc1 [Compound 58] | 25 | 1.333 | 1 | 1 | 0.06 | 8.7 | 10 | 1.69 | 5 | 2
Cc1nc2ccccc2n1Cc1ccc(Br)cc1 [Compound 18] | 21 | 1.000 | 1 | 1 | – | – | 43.2 | 1.8 | 9.1 | 1
O=C(O)C(S)Cc1ccc(Cl)cc1 (centres unmarked) [Compound 47] | 37 | 2.000 | 1 | 1 | – | – | 34.2 | 24.6 | 202 | 4
